{"source": "paper PMC7955127", "about": "“Preclinical small molecule WEHI-7326 overcomes drug resistance and elicits response in patient-derived xenograft models of human treatment-refractory tumors” (Cell Death & Disease, 2021)", "key": {"[1]": {"test_system": "COG-N-496x neuroblastoma PDX", "experiment": "High-risk neuroblastoma PDX COG-N-496x", "type": "in vivo, NSG mice", "settings": "COG-N-496x PDX; vincristine 0.5 mg/kg i.p. once weekly", "description": "(§1) All animal studies were performed in accordance with the guidelines approved by University of New South Wales Animal Care and Ethics Committee (ACEC 17/53B) and in accordance with the requirements of the Australian Code for the Care and Use of Animals for Scientific Purposes. PDX models COG-N-440x and COG-N-496x were obtained from the Childhood Cancer Repository, Texas Tech University Health Sciences Center in Lubbock, TX, USA. 6–8 week old female NSG mice were engrafted by subcutaneous injection with 1 × 10^6 freshly thawed PDX tumor cells into one flank in a mixture of 100 μl RPMI-1640 and 100 μl Matrigel. Mice were monitored for tumor development three times weekly and tumor size measured using digital Vernier calipers. Treatments commenced when tumors reached 50 mm^3, following randomization into treatment arms. […] Mice were treated with either vincristine (0.5 mg/kg, once weekly i.p. in sterile saline for up to 5 weeks), WEHI-7326 (20 mg/kg; twice weekly i.v. in sterile saline for up to 5 weeks) or vehicle (as for WEHI-7326). For the Th-MYCN transgenic mouse model, spontaneous tumor growth in mice homozygous for the MYCN transgene was assessed by abdominal palpation at least twice a week. Treatments commenced once a small palpable tumor (~5 mm) was detected, following randomization to treatment arms. Mice were euthanized upon detection of an abdominal tumor of ~1 cm in diameter. […]"}, "[2]": {"test_system": "COG-N-440x neuroblastoma PDX", "experiment": "High-risk neuroblastoma PDX COG-N-440x", "type": "in vivo, NSG mice", "settings": "COG-N-440x PDX; vincristine 0.5 mg/kg i.p. once weekly", "description": "as §1"}}}
{"compound": "CC[C@]1(O)C[C@H]2CN(CCc3c([nH]c4ccccc34)[C@@](C(=O)OC)(c3cc4c(cc3OC)N(C=O)[C@H]3[C@@](O)(C(=O)OC)[C@H](OC(C)=O)[C@]5(CC)C=CCN6CC[C@]43[C@@H]65)C2)C1", "note": "[vincristine, reference compound]", "values": [{"measurement": "Efficacy", "setting": "[1]", "value": "entirely ineffective"}, {"measurement": "Efficacy", "setting": "[2]", "value": "entirely ineffective"}]}
